# Measured values reported in patent publication US20260276626A1, “METHOD FOR SCREENING THERAPEUTIC AGENT FOR MUSCLE WEAKNESS-RELATED DISEASES” (ENCELL CO., LTD., priority 2023, published 2026).
# Legend:
# Assay type in all cases: cell-based, mouse
# [1] = test system: MuRF-1; experiment: MuRF-1 mRNA expression level in myotubes (qPCR); details: 40 μM
# Description: (§1) The C2C12 mouse myoblast cell line was cultured in a culture medium containing 90% DMEM/HG, 10% fetal bovine serum (FBS), and 100 unit/ml penicillin/streptomycin at 37° C. under 5% CO2 condition.
# (§2) 100,000 cells were seeded in 6-well plate. After 4 days, the medium was replaced with a differentiation medium containing 5% horse serum and 100 unit/ml penicillin/streptomycin, and 95% DMEM/HG for differentiation into myotubes at 100% confluence. Here, the date on which the culture medium was replaced with the differentiation medium was designated as day 0, and the differentiation medium was replaced with fresh differentiation medium every day from day 3 to day 5.
# (§3) The medium was removed on day 5 to induce muscle atrophy and/or muscle loss, and the culture medium was treated with mitomycin C (hereinafter referred to as MMC) at concentrations of 20 μM, 40 μM, and 100 μM for 24 hours, respectively. An optical microscopic observation was used to identify changes that occurred during the process of muscle atrophy and/or muscle loss. […]
# (§4) RNA was extracted from the cells using AccuPrep®Universal RNA Extraction Kit (Bioneer). CDNA was synthesized using SuperScript™ IV Reverse Transcriptase purchased from Invitrogen, and quantitative real-time polymerase chain reaction (qPCR) was performed using PowerSYBR green PCR Master Mix from Applied biosystem to confirm the mRNA expression level. […]
# [2] = test system: C2C12 myotubes; experiment: Morphological changes in myotubes by optical microscopic observation
# Description: as §1, §2
# as §3, with “loss. After a predetermined period of time, the medium was removed, and the cells were treated with 0.25% trypsin-ethylene diamine tetra-acetic acid (EDTA, Gibco), and the cells were collected in a culture medium, followed by centrifugation at 1,500 rpm for 3 minutes.” for “loss.”
# [3] = test system: Atrogin-1; experiment: Atrogin-1 mRNA expression level in myotubes (qPCR); details: 40 μM
# Description: as §1, §2, §3, §4
# [4] = C2C12 myotubes, 24 hours, compared with 20 μM, dexamethasone 100 μM and control (FIG. 5)
# [5] = serum-free medium, 24 hours (FIG. 7)
compound,measurement,setting,value
CO[C@@]12[C@H](COC(N)=O)C3=C(C(=O)C(C)=C(N)C3=O)N1C[C@@H]1N[C@@H]12 [mitomycin C],mRNA expression level of MuRF-1,[1]; [4],the highest
same,mRNA expression level of MuRF-1,[1]; [5],maintained in an increased state
same,"thickness, length, and number of myotubes","[2]; C2C12 myotubes, 40 μM or less, 24-hour treatment, vs untreated control (FIG. 4)",significantly reduced
same,"thickness, length, and number of myotubes","[2]; serum-free medium, 40 μM, 24 hours (FIG. 6)",significant decrease
same,mRNA expression level of Atrogin-1,[3]; [4],the highest
same,mRNA expression level of Atrogin-1,[3]; [5],maintained in an increased state
